Results on three compounds are retold here after article PMC12421899, “Structural and molecular basis for phosphate recognition by SAR11 bacteria” (mBio, 2025).

Where two headings read alike, the source gives them in different places.

Assay [1] deals with CpPstS. Nature of the assay: MST-binding assay of CpPstS. On the set-up: species or system Candidatus Pelagibacter sp. HTCC7211. As to conditions: 25°C. Here is the method:
To analyze the binding affinity of CpPstS to phosphate, the microscale thermophoresis (MST)-binding assay was performed using the Monolith NT.115 instrument (NanoTemper Technologies GmbH). Based on previous studies showing that SAR11_1179 has a high binding affinity to phosphate ([33]), we purified the CpPstS protein under denaturing conditions and refolded it for the MST assay. […]. The high-affinity phosphate-binding affinity of CpPstS is consistent with that previously reported for SAR11_1179 ([33]). To further investigate the molecular mechanism underlying the high-affinity phosphate binding of CpPstS, we subsequently conducted structural biology studies on CpPstS.
Previous studies have shown that PstSCAB specifically transports inorganic phosphate ([10], [41], [42]). […] We therefore speculate that the larger substrate-binding cavity of CpPstS may allow it to bind to both phosphate and larger organic phosphorus compounds. To test this hypothesis, we conducted an MST-binding assay. […] […].
Using primers CppstS-F/CppstS-R, the CppstS gene was PCR amplified from the Candidatus Pelagibacter sp. HTCC7211 strain and inserted into the NdeI/XhoI restriction sites of the pET-22b vector containing a C-terminal His-tag (Table S3). The CpPstS and the selenomethionine (SeMet) derivative of CpPstS were expressed in E. coli BL21(DE3) cells under different culture conditions. For CpPstS protein expression for MST-binding assay, cells were cultured at 37°C in LB medium supplemented with 100 µg/mL ampicillin to an OD600 of 0.8–1.0, and induction was initiated with 0.35 mM isopropyl-β-D-thiogalactopyranoside (IPTG) at 15°C for 16 hours. For SeMet-CpPstS protein expression for crystallization, the SeMet-CpPstS protein was overexpressed in E. coli BL21(DE3) using M9 minimal medium supplemented with selenomethionine, lysine, leucine, valine, isoleucine, threonine, and phenylalanine ([50]). The overexpression was induced with 0.35 mM IPTG at 15°C for 16 hours. The purification of CpPstS for MST-binding assay was under denaturing conditions, cultured E. coli BL21(DE3) cells were collected by centrifugation, resuspended in lysis buffer (40 mM Tris-HCl [pH 8.0], 200 mM NaCl, 5% [vol/vol] glycerol, 2 mM EDTA, and 0.1 mM phenylmethanesulfonyl fluoride), and fractured by pressure crusher (JNBIO, China). The CpPstS protein was first purified by affinity chromatography on a Ni^2+-NTA column (Qiagen, Germany), washed with denaturing Ni binding buffer (8 M urea, 20 mM Tris, 250 mM NaCl, and 20 mM imidazole, pH 8.0) and eluted with denaturing Ni elution buffer (8 M urea, 20 mM Tris, 250 mM NaCl, and 250 mM imidazole, pH 8.0). […]
MST technology was used to quantify the binding affinities of NaH₂PO₄, Mpn, Glycerol-3P, and Glucose-6P to CpPstS. […]

Assay [2] has as its target Synechococcus sp. WH8102 PstS1b. As to conditions: read-out: Kd of PstS1b for phosphate; cited from earlier work.
Assay [3] has as its target Synechococcus sp. WH8102 PstS1a. To be noted: read-out: Kd of PstS1a for phosphate; cited from earlier work.
Assay [4] deals with Synechococcus sp. WH8102 PstS2. As to conditions: read-out: Kd of PstS2 for phosphate; cited from earlier work.
Where [5] appears, read: 40 mM MES pH 7.2, 0.005% Tween-20, read-out: Kd of CpPstS for organic phosphorus compounds.

As for `O=C[C@H](O)[C@@H](O)[C@H](O)[C@H](O)COP(=O)(O)O` [glucose-6-phosphate], in assay [1] (setting [5]), the Kd was 668 ± 253 µM.
Same read-out and setting: then `O=P(O)(O)OCC(O)CO` (stereo not shown) [glycerol-3-phosphate], with 105 ± 44.6 µM.
On to phosphate, for which the Kd in assay [2] was 0.44 µM; in assay [3] it was 3.3 µM; in assay [4], 4.3 µM; in assay [1] (refolded CpPstS, 40 mM MES pH 7.2, 0.005% Tween-20, NaH2PO4 titrated from 1.53 nM to 50 µM, listed as NaH2PO4, read-out: Kd (dissociation constant) of CpPstS for phosphate) it was 0.112 ± 0.0805 µM; in assay [1] (refolded CpPstS, 40 mM MES pH 7.2, 0.005% Tween-20, NaH2PO4 titrated from 1.53 nM to 50 µM, read-out: Kd (dissociation constant) of CpPstS for phosphate), 0.112 µM.
